Measurements published in ChEMBL document CHEMBL1671626, “In vitro profiling of ceftaroline against a collection of recent bacterial clinical isolates from across the United States” (2008).
Values after ≈ are worked out from the molar mass of the structure shown.

Assays:
Assay type in all cases: functional
[1] = tested on: Enterobacter cloacae; assay: Antibacterial activity against ceftazidime-susceptible Enterobacter cloacae assessed as resistant isolates by CLSI M7-A7 broth microdilution method
[2] = tested on: Staphylococcus aureus; assay: Antibacterial activity against coagulase-negative and oxacillin-susceptible Staphylococcus aureus assessed as resistant isolates by CLSI M7-A7 broth microdilution method
[3] = tested on: Providencia sp.; assay: Antibacterial activity against ceftazidime-susceptible Providencia sp. assessed as resistant isolates by CLSI M7-A7 broth microdilution method
[4] = tested on: Acinetobacter; assay: Antibacterial activity against multidrug-resistant Acinetobacter by CLSI M7-A7 broth microdilution method
[5] = tested on: Escherichia coli; assay: Antibacterial activity against ceftazidime-susceptible Escherichia coli assessed as resistant isolates by CLSI M7-A7 broth microdilution method
[6] = tested on: Staphylococcus aureus; assay: Antibacterial activity against methicillin-resistant Staphylococcus aureus assessed as resistant isolates by CLSI M7-A7 broth microdilution method
[7] = tested on: Morganella morganii; assay: Antibacterial activity against ceftazidime-susceptible Morganella morganii assessed as resistant isolates by CLSI M7-A7 broth microdilution method
[8] = tested on: Staphylococcus aureus; assay: Antibacterial activity against methicillin-resistant Staphylococcus aureus assessed as susceptible isolates by CLSI M7-A7 broth microdilution method
[9] = tested on: Serratia marcescens; assay: Antibacterial activity against ceftazidime-susceptible Serratia marcescens assessed as susceptible isolates by CLSI M7-A7 broth microdilution method
[10] = tested on: Moraxella catarrhalis; assay: Antibacterial activity against beta lactamase-positive Moraxella catarrhalis by CLSI M7-A7 broth microdilution method
[11] = tested on: Acinetobacter; assay: Antibacterial activity against imipenem-susceptible Acinetobacter by CLSI M7-A7 broth microdilution method
[12] = tested on: Acinetobacter; assay: Antibacterial activity against imipenem-susceptible Acinetobacter assessed as resistant isolates by CLSI M7-A7 broth microdilution method
[13] = tested on: Citrobacter freundii; assay: Antibacterial activity against ceftazidime-susceptible Citrobacter freundii by CLSI M7-A7 broth microdilution method
[14] = tested on: Enterobacteriaceae; assay: Antibacterial activity against ceftazidime-nonsusceptible Enterobacteriaceae assessed as resistant isolates by CLSI M7-A7 broth microdilution method
[15] = tested on: Moraxella catarrhalis; assay: Antibacterial activity against beta lactamase-positive Moraxella catarrhalis assessed as susceptible isolates by CLSI M7-A7 broth microdilution method
[16] = tested on: Staphylococcus aureus; assay: Antibacterial activity against methicillin-susceptible Staphylococcus aureus assessed as susceptible isolates by CLSI M7-A7 broth microdilution method
[17] = tested on: Acinetobacter; assay: Antibacterial activity against multidrug-resistant Acinetobacter assessed as resistant isolates by CLSI M7-A7 broth microdilution method
[18] = tested on: Staphylococcus aureus; assay: Antibacterial activity against coagulase-negative and oxacillin-susceptible Staphylococcus aureus assessed as susceptible isolates by CLSI M7-A7 broth microdilution method
[19] = tested on: Haemophilus influenzae; assay: Antibacterial activity against beta lactamase-negative Haemophilus influenzae assessed as susceptible isolates by CLSI M7-A7 broth microdilution method
[20] = tested on: Morganella morganii; assay: Antibacterial activity against ceftazidime-susceptible Morganella morganii assessed as susceptible isolates by CLSI M7-A7 broth microdilution method
[21] = tested on: Staphylococcus aureus; assay: Antibacterial activity against coagulase-negative and oxacillin-resistant Staphylococcus aureus assessed as susceptible isolates by CLSI M7-A7 broth microdilution method
[22] = tested on: Enterobacter cloacae; assay: Antibacterial activity against ceftazidime-susceptible Enterobacter cloacae assessed as susceptible isolates by CLSI M7-A7 broth microdilution method
[23] = tested on: Enterobacter cloacae; assay: Antibacterial activity against ceftazidime-nonsusceptible Enterobacter cloacae by CLSI M7-A7 broth microdilution method
[24] = tested on: Proteus mirabilis; assay: Antibacterial activity against ceftazidime-susceptible Proteus mirabilis assessed as resistant isolates by CLSI M7-A7 broth microdilution method
[25] = tested on: Enterobacter cloacae; assay: Antibacterial activity against ceftazidime-susceptible Enterobacter cloacae by CLSI M7-A7 broth microdilution method
[26] = tested on: Enterobacteriaceae; assay: Antibacterial activity against ceftazidime-susceptible Enterobacteriaceae assessed as susceptible isolates by CLSI M7-A7 broth microdilution method
[27] = tested on: Streptococcus pneumoniae; assay: Antibacterial activity against penicillin-susceptible Streptococcus pneumoniae by CLSI M7-A7 broth microdilution method
[28] = tested on: Enterobacteriaceae; assay: Antibacterial activity against ceftazidime-susceptible Enterobacteriaceae by CLSI M7-A7 broth microdilution method
[29] = tested on: Staphylococcus aureus; assay: Antibacterial activity against methicillin-susceptible Staphylococcus aureus assessed as resistant isolates by CLSI M7-A7 broth microdilution method
[30] = tested on: Serratia marcescens; assay: Antibacterial activity against ceftazidime-susceptible Serratia marcescens by CLSI M7-A7 broth microdilution method
[31] = tested on: Staphylococcus aureus; assay: Antibacterial activity against coagulase-negative and oxacillin-susceptible Staphylococcus aureus by CLSI M7-A7 broth microdilution method
[32] = tested on: Haemophilus influenzae; assay: Antibacterial activity against beta lactamase-positive Haemophilus influenzae by CLSI M7-A7 broth microdilution method
[33] = tested on: Streptococcus pyogenes; assay: Antibacterial activity against erythromycin-nonsusceptible Streptococcus pyogenes by CLSI M7-A7 broth microdilution method
[34] = tested on: Klebsiella pneumoniae; assay: Antibacterial activity against ceftazidime-nonsusceptible Klebsiella pneumoniae assessed as susceptible isolates by CLSI M7-A7 broth microdilution method
[35] = tested on: Escherichia coli; assay: Antibacterial activity against ceftazidime-susceptible Escherichia coli assessed as susceptible isolates by CLSI M7-A7 broth microdilution method
[36] = tested on: Escherichia coli; assay: Antibacterial activity against ceftazidime-nonsusceptible Escherichia coli by CLSI M7-A7 broth microdilution method
[37] = tested on: Providencia sp.; assay: Antibacterial activity against ceftazidime-susceptible Providencia sp. assessed as susceptible isolates by CLSI M7-A7 broth microdilution method
[38] = tested on: Enterobacter cloacae; assay: Antibacterial activity against ceftazidime-nonsusceptible Enterobacter cloacae assessed as resistant isolates by CLSI M7-A7 broth microdilution method
[39] = tested on: Staphylococcus aureus; assay: Antibacterial activity against coagulase-negative and oxacillin-resistant Staphylococcus aureus assessed as resistant isolates by CLSI M7-A7 broth microdilution method
[40] = tested on: Haemophilus influenzae; assay: Antibacterial activity against beta lactamase-positive Haemophilus influenzae assessed as susceptible isolates by CLSI M7-A7 broth microdilution method
[41] = tested on: Streptococcus viridans; assay: Antibacterial activity against penicillin-susceptible Streptococcus viridans by CLSI M7-A7 broth microdilution method
[42] = tested on: Escherichia coli; assay: Antibacterial activity against ceftazidime-nonsusceptible Escherichia coli assessed as susceptible isolates by CLSI M7-A7 broth microdilution method
[43] = tested on: Staphylococcus aureus; assay: Antibacterial activity against methicillin-resistant Staphylococcus aureus by CLSI M7-A7 broth microdilution method
[44] = tested on: Streptococcus pneumoniae; assay: Antibacterial activity against penicillin-resistant Streptococcus pneumoniae assessed as resistant isolates by CLSI M7-A7 broth microdilution method
[45] = tested on: Streptococcus pneumoniae; assay: Antibacterial activity against penicillin-resistant Streptococcus pneumoniae assessed as susceptible isolates by CLSI M7-A7 broth microdilution method

CC(C)(O/N=C(\C(=O)N[C@@H]1C(=O)N2C(C(=O)[O-])=C(C[n+]3ccccc3)CS[C@H]12)c1csc(N)n1)C(=O)O [CEFTAZIDIME]
Activity [1]: 0% | Activity [2]: 0.5% | Activity [3]: 0% | MIC50 [4]: > 32 µg/mL | MIC90 [4]: > 32 µg/mL | Activity [5]: 0% | Activity [6]: 54% | Activity [7]: 0% | Activity [8]: 11% | Activity [9]: 100% | MIC [10]: ≤ 1 µg/mL | MIC50 [10]: ≤ 1 µg/mL | MIC90 [10]: ≤ 1 µg/mL | MIC50 [11]: 4 µg/mL (≈ 7.32 µM) | MIC90 [11]: > 32 µg/mL | Activity [12]: 31.9% | MIC50 [13]: 0.25 µg/mL (≈ 0.457 µM) | MIC90 [13]: 1 µg/mL (≈ 1.83 µM) | Activity [14]: 90% | Activity [15]: 100% | Activity [16]: 92% | Activity [17]: 93.8% | Activity [18]: 93.5% | Activity [19]: 98.5% | Activity [20]: 100% | Activity [21]: 10% | Activity [22]: 100% | MIC50 [23]: > 32 µg/mL | MIC90 [23]: > 32 µg/mL | Activity [24]: 0% | MIC50 [25]: 0.25 µg/mL (≈ 0.457 µM) | MIC90 [25]: 1 µg/mL (≈ 1.83 µM) | Activity [26]: 100% | MIC [27]: ≤ 1 µg/mL | MIC50 [27]: ≤ 1 µg/mL | MIC90 [27]: ≤ 1 µg/mL | MIC50 [28]: 0.12 µg/mL (≈ 0.22 µM) | MIC90 [28]: 0.5 µg/mL (≈ 0.915 µM) | Activity [29]: 1.7% | MIC50 [30]: 0.12 µg/mL (≈ 0.22 µM) | MIC90 [30]: 1 µg/mL (≈ 1.83 µM) | MIC50 [31]: 4 µg/mL (≈ 7.32 µM) | MIC90 [31]: 8 µg/mL (≈ 14.6 µM) | MIC50 [32]: 0.06 µg/mL (≈ 0.11 µM) | MIC90 [32]: 0.12 µg/mL (≈ 0.22 µM) | MIC [33]: ≤ 1 µg/mL | MIC50 [33]: ≤ 1 µg/mL | MIC90 [33]: ≤ 1 µg/mL | Activity [34]: 0% | Activity [35]: 100% | MIC50 [36]: > 32 µg/mL | MIC90 [36]: > 32 µg/mL | Activity [37]: 100% | Activity [38]: 91.4% | Activity [39]: 66.2% | Activity [40]: 98% | MIC [41]: ≤ 1 µg/mL | MIC50 [41]: ≤ 1 µg/mL | MIC90 [41]: 4 µg/mL (≈ 7.32 µM) | Activity [42]: 0% | MIC50 [43]: 32 µg/mL (≈ 58.5 µM) | MIC90 [43]: > 32 µg/mL

C[C@@H](O)[C@H]1C(=O)N2C(C(=O)O)=C(SCCNC=N)C[C@H]12 [IMIPENEM ANHYDROUS]
Activity [1]: 0% | Activity [2]: 0% | Activity [3]: 0% | MIC50 [4]: 0.5 µg/mL (≈ 1.67 µM) | MIC90 [4]: 32 µg/mL (≈ 107 µM) | Activity [5]: 0% | Activity [6]: 13.5% | Activity [44]: 10.8% | Activity [45]: 12.5% | Activity [7]: 0% | Activity [8]: 84.6% | Activity [9]: 100% | MIC [10]: ≤ 0.12 µg/mL | MIC50 [10]: ≤ 0.12 µg/mL | MIC90 [10]: ≤ 0.12 µg/mL | MIC50 [11]: 0.25 µg/mL (≈ 0.835 µM) | MIC90 [11]: 0.5 µg/mL (≈ 1.67 µM) | Activity [12]: 0% | MIC50 [13]: 0.5 µg/mL (≈ 1.67 µM) | MIC90 [13]: 1 µg/mL (≈ 3.34 µM) | Activity [14]: 4.5% | Activity [16]: 99.7% | Activity [17]: 31.3% | Activity [18]: 100% | Activity [19]: 100% | Activity [20]: 100% | Activity [21]: 77.3% | Activity [22]: 100% | MIC50 [23]: 0.25 µg/mL (≈ 0.835 µM) | MIC90 [23]: 0.25 µg/mL (≈ 0.835 µM) | Activity [24]: 0% | MIC50 [25]: 0.5 µg/mL (≈ 1.67 µM) | MIC90 [25]: 0.5 µg/mL (≈ 1.67 µM) | Activity [26]: 100% | MIC [27]: ≤ 0.015 µg/mL | MIC50 [27]: ≤ 0.015 µg/mL | MIC90 [27]: ≤ 0.015 µg/mL | MIC50 [28]: 0.25 µg/mL (≈ 0.835 µM) | MIC90 [28]: 1 µg/mL (≈ 3.34 µM) | Activity [29]: 0.3% | MIC50 [30]: 0.5 µg/mL (≈ 1.67 µM) | MIC90 [30]: 1 µg/mL (≈ 3.34 µM) | MIC [31]: ≤ 0.12 µg/mL | MIC50 [31]: ≤ 0.12 µg/mL | MIC90 [31]: ≤ 0.12 µg/mL | MIC50 [32]: 0.12 µg/mL (≈ 0.401 µM) | MIC90 [32]: 0.5 µg/mL (≈ 1.67 µM) | MIC [33]: ≤ 0.015 µg/mL | MIC50 [33]: ≤ 0.015 µg/mL | MIC90 [33]: ≤ 0.015 µg/mL | Activity [34]: 80.3% | Activity [35]: 100% | MIC50 [36]: 0.25 µg/mL (≈ 0.835 µM) | MIC90 [36]: 1 µg/mL (≈ 3.34 µM) | Activity [37]: 100% | Activity [38]: 2.9% | Activity [39]: 16.4% | Activity [40]: 100% | MIC [41]: ≤ 0.015 µg/mL | MIC50 [41]: ≤ 0.015 µg/mL | MIC90 [41]: 0.06 µg/mL (≈ 0.2 µM) | Activity [42]: 96.8% | MIC50 [43]: 0.25 µg/mL (≈ 0.835 µM) | MIC90 [43]: > 16 µg/mL
